# In patent publication US8034812B2, “Imidazopyridazine derivative having kinase inhibitory activity and pharmaceutical agent thereof” (Takeda Pharmaceutical Company Limited, priority 2006, dated 2011):
# What was measured:
# [1] = molecular target: T1, VEGFR2 intracellular domain protein (Homo sapiens, UniProt P35968); assay: Determination of vascular endothelial growth factor receptor 2 (VEGFR2) kinase inhibitory activity (AlphaScreen); type: biochemical; details: read-out: VEGFR2 kinase inhibitory rate
# T1 construct: made in house; host or cells: SF-21 insect cells, recombinant baculovirus BAC-VEGFR2
# Protocol: Human vascular endothelial growth factor receptor 2 (hereinafter to be referred to as VEGFR2) gene was cloned by PCR using cDNA Libraries Human Placenta (Clontech) as a template. The primer used for PCR was prepared from base sequence (Genbank Accession AF035121) information of VEGFR2 gene by adding a base sequence encoding flag peptide and a recognition sequence of the restriction enzyme to a base sequence (2671-4374 of Genbank Accession AF035121) encoding the VEGFR2 intracellular domain region, so that the protein contains an N-terminal Flag tag. The primer base sequence is shown below.
# SF-21 cells were sown at 1×10^6 cells/mL to Sf-900II SFM medium (1 L, Invitrogen) containing 10% fetal bovine serum (trace), 50 mg/L Gentamicin (Invitrogen) and 0.1% Pluronic F-68 (Invitrogen), and shaking culture was performed using a 2 L volume Erlenmeyer flask at 27° C., 100 rpm. After culturing for 24 hrs, recombinant baculovirus BAC-VEGFR2 (13.4 mL) was added to the mixture, and the mixture was further cultured for 3 days. The culture medium was centrifuged at 2,000 rpm for 5 min to give virus-infected cells. The infected cells were washed with a phosphate buffered saline (Invitrogen), centrifuged under the same conditions, and the cells were preserved at −80° C. The cryopreserved cells were thawed in ice, suspended in buffer A (50 mM Tris buffer (30 mL, pH 7.4) containing 20% glycerol, 0.15 M NaCl) supplemented with Complete Protease Inhibitor (Boehringer), and ruptured 3 times with a Polytron homogenizer (Kinematica) at 20,000 rpm for 30 sec. The ruptured medium was clarified by centrifugation at 40,000 rpm for 30 min and filtered with a 0.45 μm filter. The filtrate was passed through a column packed with Anti-FLAG M2 Affinity Gel (4 mL, Sigma) at a flow rate of about 0.5 mL/min. The column was washed with buffer A, and eluted with buffer A containing 100 μg/mL of FLAG peptide. The eluate was concentrated with Vivaspin 20 (Vivascience) having a molecular weight cut off of 30K. The buffer of this concentrate was exchanged using NAP™ 25 column (Amersham Bioscience) equilibrated with buffer A. The fractions containing intracellular domain protein of VEGFR2 were collected, glycerol was added to the final concentration of 50% and cryopreserved at −80° C.
# A test compound dissolved in dimethyl sulfoxide (DMSO) was diluted with a buffer (50 mM Tris-HCl (pH 7.5), 5 mM MgCl2, 5 mM MnCl2, 2 mM dithiothreitol, 0.01% Tween-20). To this compound solution (5 μL) was added a buffer (10 μL) containing 50 ng/mL of VEGFR2 intracellular domain protein and 250 ng/mL of biotin labeled polypeptide biotinyl-poly-Glu:Tyr (4:1) (CIS bio International). To the obtained mixture was added a buffer (10 μL) containing ATP (25 μM), the mixture was allowed to react at 25° C. for 5 min and the reaction was quenched with 25 μL of a stop solution (100 mM EDTA disodium salt, 62.5 mM HEPES buffer (pH 7.4), 250 mM NaCl, 0.1% bovine serum albumin, 10 μg/mL AlphaScreen assay streptavidin donor beads (Streptavidin Donor beads: PerkinElmer), 10 μg/mL AlphaScreen assay anti-phosphotyrosine recognition antibody PY-100 binding acceptor beads (Anti-phosphotyrosine (P-Tyr-100) Acceptor beads: PerkinElmer)). The reaction solution was allowed to stand at 25° C. for 16 hrs, and the wells were counted using a plate reader Fusion™ (PerkinElmer). The kinase inhibitory rate (%) of the test compound was calculated by the following formula: Inhibitory rate(%)=(1−(count of test compound−blank)÷(control−blank))×100
# [2] = system: Human umbilical vein-derived vascular endothelial cells (HUVEC); assay: Vascular endothelial cell growth inhibitory test (VEGF-stimulated HUVEC, XTT); type: cell-based; details: 120 h, 5 days of culture
# Protocol: To be specific, HUVEC was suspended in a vascular endothelial cell medium containing the aforementioned 5% bovine fetal serum and plated on a 96 well flat bottom plate by 50 μL (3000 cells) each well. After culture overnight, various concentrations of the test substance and 120 ng/mL of vascular endothelial growth factor (VEGF) were dissolved in a vascular endothelial cell medium containing 5% bovine fetal serum and added to each well by 50 μL. After 5 days of culture, a XTT reagent (Wako Pure Chemical Industries, Ltd.) was added to each well by 10 μL, and the mixture was reacted in an incubator at 37° C., 5% carbon dioxide for 2-3 hr. The absorbance at 450 nm was measured by a microtiter plate reader and the cell growth inhibitory activity was determined.
# [3] = molecular target: T2, PDGFRα intracellular domain protein (Homo sapiens, UniProt P16234); assay: Determination of platelet-derived growth factor receptor α (PDGFRα) kinase inhibitory activity (AlphaScreen); type: biochemical
# T2 construct: 125 ng/ml of PDGFRα intracellular domain protein (UPSTATE); purchased UPSTATE
# Protocol: (§1) A test compound dissolved in dimethyl sulfoxide (DMSO) was diluted with a buffer (50 mM Tris-HCl (pH 7.5), 5 mM MgCl2, 5 mM MnCl2, 2 mM dithiothreitol, 0.01% Tween-20). To this compound solution (5 μL) was added a buffer (10 μL) containing 125 ng/ml of PDGFRα intracellular domain protein (UPSTATE) and 250 ng/mL of biotin labeled polypeptide biotinyl-poly-Glu:Tyr (4:1) (CIS bio International). At 5 min after mixing kinase enzyme and the compound and biotin labeled polypeptide, to the obtained mixture was added a buffer (10 μL) containing ATP (25 μM), the mixture was allowed to react at 25° C. for 30 min and the reaction was quenched with 25 μL of a stop solution (100 mM EDTA disodium salt, 62.5 mM HEPES buffer (pH 7.4), 250 mM NaCl, 0.1% bovine serum albumin, 10 μg/mL AlphaScreen assay streptavidin donor beads (Streptavidin Donor beads: PerkinElmer), 10 μg/mL AlphaScreen assay anti-phosphotyrosine recognition antibody PT-66 binding acceptor beads (Anti-phosphotyrosine (P-Tyr-66) Acceptor beads: PerkinElmer)). The reaction solution was allowed to stand at 25° C. for 16 hrs, and the wells were counted using a plate reader Fusion™ (PerkinElmer). The kinase inhibitory rate (%) of the test compound was calculated by the following formula: Inhibitory rate(%)=(1−(count of test compound−blank)÷(control−blank))×100
# (§2) The count of the solution reacted without addition of the compound was used as a “control”, and the count of the solution without the compound and ATP was used as a “blank”.
# [4] = molecular target: T3, PDGFRβ intracellular domain protein (Homo sapiens, UniProt P09619); assay: Determination of platelet-derived growth factor receptor β (PDGFRβ) kinase inhibitory activity (AlphaScreen); type: biochemical
# T3 construct: 125 ng/ml of PDGFRβ intracellular domain protein (UPSTATE); purchased UPSTATE
# Protocol: as §1, with “of PDGFRβ” for “of PDGFRα”, “Donor Beads:” for “Donor beads:”, “test compound[…])÷(control−blank))×100” for “test compound−blank)÷(control−blank))×100”
# as §2
# T1 sequence (P35968 786-1356 limits assumed): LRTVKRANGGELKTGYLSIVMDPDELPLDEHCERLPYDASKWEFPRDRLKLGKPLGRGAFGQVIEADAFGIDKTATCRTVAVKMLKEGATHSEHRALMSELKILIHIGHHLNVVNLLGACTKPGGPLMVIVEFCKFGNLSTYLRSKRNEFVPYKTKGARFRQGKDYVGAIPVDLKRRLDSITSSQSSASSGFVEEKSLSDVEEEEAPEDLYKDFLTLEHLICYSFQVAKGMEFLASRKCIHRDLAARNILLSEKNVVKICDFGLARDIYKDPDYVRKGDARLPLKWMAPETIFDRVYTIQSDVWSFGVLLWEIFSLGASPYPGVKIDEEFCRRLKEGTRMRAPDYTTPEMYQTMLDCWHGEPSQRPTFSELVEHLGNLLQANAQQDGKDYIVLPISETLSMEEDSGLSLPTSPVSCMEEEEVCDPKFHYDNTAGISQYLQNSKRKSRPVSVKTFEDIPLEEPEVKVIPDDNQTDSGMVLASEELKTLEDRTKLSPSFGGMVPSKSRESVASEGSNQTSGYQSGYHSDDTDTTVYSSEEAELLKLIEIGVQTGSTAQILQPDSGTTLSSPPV
# T2 sequence (P16234 550-1089 limits assumed): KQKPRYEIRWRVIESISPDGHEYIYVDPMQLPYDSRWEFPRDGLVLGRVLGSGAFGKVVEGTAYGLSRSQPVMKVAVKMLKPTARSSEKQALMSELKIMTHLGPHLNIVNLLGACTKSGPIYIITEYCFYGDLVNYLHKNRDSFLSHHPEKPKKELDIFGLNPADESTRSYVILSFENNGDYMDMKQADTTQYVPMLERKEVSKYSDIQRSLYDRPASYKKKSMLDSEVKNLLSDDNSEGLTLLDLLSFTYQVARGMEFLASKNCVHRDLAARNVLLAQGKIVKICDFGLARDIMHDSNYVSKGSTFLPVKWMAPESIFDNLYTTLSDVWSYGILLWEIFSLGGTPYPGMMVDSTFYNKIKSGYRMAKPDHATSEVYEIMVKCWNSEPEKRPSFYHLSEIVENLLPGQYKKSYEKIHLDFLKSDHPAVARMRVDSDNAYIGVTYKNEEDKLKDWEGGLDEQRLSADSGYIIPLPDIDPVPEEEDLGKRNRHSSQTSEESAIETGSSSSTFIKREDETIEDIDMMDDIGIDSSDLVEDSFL
# T3 sequence (P09619 554-1106 limits assumed): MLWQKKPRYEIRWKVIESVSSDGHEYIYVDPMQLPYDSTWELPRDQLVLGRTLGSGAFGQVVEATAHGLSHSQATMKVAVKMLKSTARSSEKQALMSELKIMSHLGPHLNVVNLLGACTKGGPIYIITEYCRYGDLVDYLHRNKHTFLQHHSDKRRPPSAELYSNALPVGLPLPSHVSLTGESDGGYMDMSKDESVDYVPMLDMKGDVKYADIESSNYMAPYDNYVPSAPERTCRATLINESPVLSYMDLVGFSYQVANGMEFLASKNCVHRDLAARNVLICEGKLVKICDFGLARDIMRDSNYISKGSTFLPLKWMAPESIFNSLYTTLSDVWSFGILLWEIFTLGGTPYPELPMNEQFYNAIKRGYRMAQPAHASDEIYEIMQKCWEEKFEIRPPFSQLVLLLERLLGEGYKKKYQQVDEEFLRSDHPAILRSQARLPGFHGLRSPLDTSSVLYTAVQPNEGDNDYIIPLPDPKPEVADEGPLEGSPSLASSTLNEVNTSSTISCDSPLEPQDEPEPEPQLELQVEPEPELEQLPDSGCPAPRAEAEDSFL
Compound,inhibition at 1 µM [1] [%],IC50 [2] [nM],IC50 [3] [nM],IC50 [4] [nM]
"O=C(Nc1cn2nc(Oc3ccc4cc[nH]c4c3)ccc2n1)C1CC1 [Example 95, N-[6-(1H-indol-6-yloxy)imidazo[1,2-b]pyridazin-2-yl]cyclopropanecarboxamide]",≥ 90,≤ 500,≤ 500,
"CCNC(=O)Nc1cccc(Oc2ccc3nc(NC(=O)C4CC4)cn3n2)c1 [Example 103, N-[6-(3-{[(ethylamino)carbonyl]amino}phenoxy)imidazo[1,2-b]pyridazin-2-yl]cyclopropanecarboxamide]",≥ 90,≤ 500,,≤ 500
"Cc1ccc(Oc2ccc3nc(NC(=O)C4CC4)cn3n2)cc1N [Example 108, N-[6-(3-amino-4-methylphenoxy)imidazo[1,2-b]pyridazin-2-yl]cyclopropanecarboxamide]",≥ 90,≤ 500,,
"Cc1cc(C(=O)Nc2cc(Oc3ccc4nc(NC(=O)C5CC5)cn4n3)ccc2C)n(C)n1 [Example 111, N-[5-({2-[(cyclopropylcarbonyl)amino]imidazo[1,2-b]pyridazin-6-yl}oxy)-2-methylphenyl]-1,3-dimethyl-1H-pyrazole-5-carboxamide]",≥ 90,≤ 500,,
"Cc1nc(C)c(C(=O)Nc2cccc(Oc3ccc4nc(NC(=O)C5CC5)cn4n3)c2)s1 [Example 114, N-[3-({2-[(cyclopropylcarbonyl)amino]imidazo[1,2-b]pyridazin-6-yl}oxy)phenyl]-2,4-dimethyl-1,3-thiazole-5-carboxamide]",≥ 90,≤ 500,,≤ 500
"Cc1nc(C(=O)Nc2cccc(Oc3ccc4nc(NC(=O)C5CC5)cn4n3)c2)c(C)o1 [Example 117, N-[3-({2-[(cyclopropylcarbonyl)amino]imidazo[1,2-b]pyridazin-6-yl}oxy)phenyl]-2,5-dimethyl-1,3-oxazole-4-carboxamide]",≥ 90,≤ 500,,≤ 500
"COCC(=O)Nc1cn2nc(Oc3cccc(NC(=O)c4cc(C)nn4C)c3)ccc2n1 [Example 127, N-[3-({2-[(methoxyacetyl)amino]imidazo[1,2-b]pyridazin-6-yl}oxy)phenyl]-1,3-dimethyl-1H-pyrazole-5-carboxamide]",≥ 90,≤ 500,,≤ 500
"Cc1cc(C(=O)Nc2cc(Oc3ccc4nc(NC(=O)C5CC5)cn4n3)ccc2F)n(C)n1 [Example 148, N-[5-({2-[(cyclopropylcarbonyl)amino]imidazo[1,2-b]pyridazin-6-yl}oxy)-2-fluorophenyl]-1,3-dimethyl-1H-pyrazole-5-carboxamide]",≥ 90,≤ 500,≤ 500,≤ 500
"Cc1cc(C(=O)Nc2cccc(Oc3ccc4nc(NC(=O)CN(C)C)cn4n3)c2)n(C)n1 [Example 149, N-[3-({2-[(N,N-dimethylglycyl)amino]imidazo[1,2-b]pyridazin-6-yl}oxy)phenyl]-1,3-dimethyl-1H-pyrazole-5-carboxamide]",≥ 90,≤ 500,,≤ 500
"Cc1cc(C(=O)Nc2cccc(Sc3ccc4nc(NC(=O)C5CC5)cn4n3)c2)n(C)n1 [Example 150, N-[3-({2-[(cyclopropylcarbonyl)amino]imidazo[1,2-b]pyridazin-6-yl}sulfanyl)phenyl]-1,3-dimethyl-1H-pyrazole-5-carboxamide]",≥ 90,≤ 500,,≤ 500
"CCn1cc(C(=O)Nc2cc(Oc3ccc4nc(NC(=O)C5CC5)cn4n3)ccc2F)c(C)n1 [Example 161, N-[5-({2-[(cyclopropylcarbonyl)amino]imidazo[1,2-b]pyridazin-6-yl}oxy)-2-fluorophenyl]-1-ethyl-3-methyl-1H-pyrazole-4-carboxamide]",≥ 90,≤ 500,≤ 500,≤ 500
"O=C(Nc1cccc(Oc2ccc3nc(NC(=O)C4CC4)cn3n2)c1)c1ccccc1 [Example 165, N-[3-({2-[(cyclopropylcarbonyl)amino]imidazo[1,2-b]pyridazin-6-yl}oxy)phenyl]benzamide]",≥ 90,≤ 500,≤ 500,≤ 500
"CCn1cc(C(=O)Nc2cc(Oc3ccc4nc(NC(=O)C5CC5)cn4n3)ccc2Cl)c(C)n1 [Example 254, N-[2-chloro-5-({2-[(cyclopropylcarbonyl)amino]imidazo[1,2-b]pyridazin-6-yl}oxy)phenyl]-1-ethyl-3-methyl-1H-pyrazole-4-carboxamide]",≥ 90,≤ 500,,≤ 500
